This note sets out measurements from patent US20100324067A1, “TETRACYCLIC DIPYRANO-COUMARIN COMPOUNDS WITH ANTI-HIV AND ANTI-MYCOBACTERIUM TUBERCULOSIS ACTIVITIES” (priority 2007, published 2010).

The test system of one data set is host cells of the virus. Put plainly: Cell toxicity to the host cells of the virus at 10 μM. The data set is classed as cell-based.
A further data set has as its system HIV-1. Put plainly: Inhibitory activity against HIV-1 (literature method, Chen et al. J Virol 1997). Conditions: for inhibition at 1 µM: Human immunodeficiency virus 1, read-out: Anti-HIV (%, 1.0 μM); for EC50: Human immunodeficiency virus 1; for Therapeutic index (TI) = 50% cytotoxicity doses/50% effective dose: value in brackets after EC50. Here is the method:
Inhibitory activity of the coumarin derivatives of the present invention against HIV-1.
Inhibitory activity of the compounds against HIV-1 is assayed using the literature method. The experimental conditions, procedures, reagents and so on of the experiment are referred to the reference of “ZHIWEI CHEN, PEI ZHOU, DAVID D. HO, et al. Genetically divergent strains of simian immuno-deficiency virus use CCR5 as a coreceptor for entry. Journal of Virology, 1997, 71(4): 2705-2714”.

The test system of data set [1] is Mycobacterium tuberculosis H37Rv (ATCC 27294). Put plainly: Microplate Alamar Blue Assay (MABA) in BACTEC 12B medium (TAACF screen). The data set is classed as cell-based. On the technique in general: Alamar Blue is a resazurin reagent that responds to reducing activity.
Where [2] appears, read: read-out: anti-TB active compound (MIC90 less than 10 μg/mL), classification.

The structures appear in SMILES notation. Values after ≈ are worked out from the molar mass of the structure shown. Read-outs that look alike come from different tables or passages of the source.

The term melting point denotes the temperature of the solid-liquid transition. Usually EC50 stands for the midpoint of the concentration-response curve. The low end stands for greater potency, the high end for weaker potency. In general, IC50 refers to the point on the concentration scale where inhibition reaches its midpoint.

In the case of `CCCc1cc(=O)oc2c3c(c4c(c12)OC(C)(C)C=C4)OC(C)CC3O` (single isomer, unassigned; (+)) [(+)-11-demethyl Calanolide A, reference compound], the “Cell toxicity (10 μM)” value with host cells of the virus (class symbol, share of host cells of the virus died at 10 μM compound) is listed as “++ (10-80%)”. In the data set with host cells of the virus (host cells of the virus died at 10 μM compound), the “Cell toxicity (10 μM), number printed before the class symbol” value came to 54%. In the data set with HIV-1 (compound at 1.0 μM), the “Anti-HIV (%, 1.0 μM)” value amounted to 75%.

For `CCCc1cc(=O)oc2c3c(c4c(c12)OC(C)(C)C=C4)OC(C)CC3=O` (stereo not drawn) [Example 11, 6,6,10-trimethyl-4-n-propyl-2H,6H,12H-benzo[1,2-b:3,4-b′:5,6-b″]-tripyranyl-2,12-dione], the inhibition at 1 µM in the data set with HIV-1 stood at 73.1%.

For the compound `CCCc1cc(=O)oc2c3c(c4c(c12)OC(C)(C)C=C4)OC(C)(C)CC3=O` [Example 12, 6,6,10,10-tetramethyl-4-n-propyl-2H,6H,12H-benzo[1,2-b:3,4-b′:5,6-b″]-tripyranyl-2,12-dione], the melting point fell in the range of 110 to 112 °C. Moreover, in the data set with HIV-1, the EC50 came to 640 nM, the inhibition at 1 µM was found to be 68.3% and the “Therapeutic index (TI) = 50% cytotoxicity doses/50% effective dose” value was 47-140.

As to `CCCc1cc(=O)oc2c3c(c4c(c12)OC(C)(C)C=C4)OC(CCC)CC3=O` (stereo not drawn) [Example 14, 6,6-dimethyl-4,10-di-n-propyl-2H,6H,12H-benzo[1,2-b:3,4-b′:5,6-b″]-tripyranyl-2,12-dione], in data set [1], the IC50 worked out at 5.72 µg/mL (≈ 15 µM). The MIC90 in data set [1] (MABA, H37Rv, read-out: MIC90) worked out at 6.44 µg/mL (≈ 16.8 µM). For the same compound, the MIC90 in data set [1] (setting [2]) is below 10 µg/mL. Besides, in the data set on HIV-1, the midpoint of the response, the EC50, lay at 32.5 nM; the inhibition at 1 µM was determined as 61.9%; the “Therapeutic index (TI) = 50% cytotoxicity doses/50% effective dose” value is recorded as 102-308. In the data set on HIV-1 (in words), the “anti-HIV-1 activity in vitro compared to (+)-calanolide A” value is reported as “much higher inhibitory activity” and the “therapeutic index, in words” value is recorded as “high therapeutic index”.

The compound `CCCCCC1CC(=O)c2c(c3c(c4c(CCC)cc(=O)oc24)OC(C)(C)C=C3)O1` (stereo not drawn) [Example 15, 6,6-dimethyl-4-n-propyl-10-n-pentyl-2H,6H,12H-benzo[1,2-b:3,4-b′:5,6-b″]-tripyranyl-2,12-dione] returned a melting point of 128 to 131 °C. The inhibition at 1 µM in the data set on HIV-1 stood at 46.4%.

`CCCc1cc(=O)oc2c3c(c4c(c12)OC(C)(C)C=C4)OC(c1ccccc1)CC3=O` (stereo not drawn) [Example 16, 6,6-dimethyl-4-n-propyl-10-phenyl-2H,6H,12H-benzo[1,2-b:3,4-b′:5,6-b″]-tripyranyl-2,12-dione]: in data set [1], half-maximal inhibition (IC50) required 2.91 µg/mL (≈ 6.99 µM). In addition, in data set [1] (MABA, H37Rv, read-out: MIC90), the MIC90 is above 100 µg/mL. The inhibition at 1 µM in the data set with HIV-1 came to 62.7%.

As for `CCCc1cc(=O)oc2c3c(c4c(c12)OC(C)(C)C=C4)O[C@@H]1CCCC[C@H]1C3=O` [Example 18, 6,6-dimethyl-4-n-propyl-10,11-trans-cyclohexyl-2H,6H,12H-benzo[1,2-b:3,4-b′:5,6-b″]-tripyranyl-2,12-dione], the melting point lay in the range of 151 to 153 °C. This compound also returned an IC50 in data set [1] of 46.8 µg/mL (≈ 119 µM). For the same compound, the MIC90 in data set [1] (MABA, H37Rv, read-out: MIC90) is above 100 µg/mL. Moreover, the inhibition at 1 µM with HIV-1 was determined as 40%.

In turn, `CCCc1cc(=O)oc2c3c(c4c(c12)OC(C)(C)C=C4)O[C@@H]1CCCC[C@@H]1C3=O` [Example 19, 6,6-dimethyl-4-n-propyl-10,11-cis-cyclohexyl-2H,6H,12H-benzo[1,2-b:3,4-b′:5,6-b″]-tripyranyl-2,12-dione] returned a melting point of 156 to 159 °C. This compound also displayed an IC50 in data set [1] of 7.95 µg/mL (≈ 20.1 µM). The MIC90 in data set [1] (MABA, H37Rv, read-out: MIC90) was found to be 11.2 µg/mL (≈ 28.5 µM). Moreover, the inhibition at 1 µM with HIV-1 stood at 59.3%.

Compound `CCCc1cc(=O)oc2c3c(c4c(c12)OC(C)(C)C=C4)OCC(C)C3=O` (stereo not drawn) [Example 30, 6,6,11-trimethyl-4-n-propyl-2H,6H,12H-benzo[1,2-b:3,4-b′:5,6-b″]-tripyranyl-2,12-dione] had a melting point of 133 to 134 °C. The inhibition at 1 µM in the data set on HIV-1 was determined as 38.9%.

For `CCCc1c(F)c(=O)oc2c3c(c4c(c12)OC(C)(C)C=C4)OC(C)CC3=O` (stereo not drawn) [Example 31, 6,6,10-trimethyl-3-fluoro-4-n-propyl-2H,6H,12H-benzo[1,2-b:3,4-b′:5,6-b″]-tripyranyl-2,12-dione], the inhibition at 1 µM in the data set with HIV-1 worked out at 45.3%.

For `CCCCc1cc(=O)oc2c3c(c4c(c12)OC(c1ccccc1)C=C4)OC(C)CC3=O` (stereo not drawn) [Example 44], the melting point lay in the range of 137 to 139 °C. Besides, the inhibition at 1 µM in the data set with HIV-1 came to 96.4%.

`CCc1cc(=O)oc2c3c(c4c(c12)OC(c1ccccc1)C=C4)OC(C)CC3=O` (stereo not drawn) [Example 45] returned a melting point of 126 to 128 °C. In data set [1], this compound showed a 50% inhibitory concentration (IC50) of 2.01 µg/mL (≈ 5.18 µM). Besides, the MIC90 in data set [1] (MABA, H37Rv, read-out: MIC90) turned out to be 2.73 µg/mL (≈ 7.02 µM). Moreover, in data set [1] (setting [2]), the MIC90 is below 10 µg/mL. In addition, the inhibition at 1 µM in the data set with HIV-1 was determined as 96.4%.

As to `CCCCC1C=Cc2c3c(c4oc(=O)cc(CC)c4c2O1)C(=O)CC(C)O3` (stereo not drawn) [Example 46], the melting point lay in the range of 119 to 121 °C. The same compound came in with an IC50 in data set [1] of 0.276 µg/mL (≈ 0.749 µM). Further, the MIC90 in data set [1] (MABA, H37Rv, read-out: MIC90) turned out to be 0.716 µg/mL (≈ 1.94 µM). Further, in data set [1] (setting [2]), the MIC90 is below 10 µg/mL. Moreover, the inhibition at 1 µM in the data set with HIV-1 was found to be 96.7%.

`CCCC1C=Cc2c3c(c4oc(=O)cc(CC)c4c2O1)C(=O)CC(C)O3` (stereo not drawn) [Example 47] yielded a melting point of 119 to 121 °C. Moreover, the IC50 in data set [1] worked out at 1.49 µg/mL (≈ 4.21 µM). Besides, in data set [1] (MABA, H37Rv, read-out: MIC90), the MIC90 stood at 1.73 µg/mL (≈ 4.88 µM). The MIC90 in data set [1] (setting [2]) is below 10 µg/mL. Also, the inhibition at 1 µM with HIV-1 was found to be 97%.

`CCCc1c(Cl)c(=O)oc2c3c(c4c(c12)OC(c1ccccc1)C=C4)OC(C)CC3=O` (stereo not drawn) [Example 50, 1-methyl-4-n-propyl-3-chloro-6-phenyl-2H,6H,12H-benzo[1,2-b:3,4-b′:5,6-b″]-tripyranyl-12-dione]: the melting point lay within 152 to 154 °C. In data set [1], this compound showed a half-maximal inhibitory concentration (IC50) of 6.07 µg/mL (≈ 13.9 µM). Further, in data set [1] (MABA, H37Rv, read-out: MIC90), the MIC90 was 6.7 µg/mL (≈ 15.3 µM). The MIC90 in data set [1] (setting [2]) was below 10 µg/mL. In addition, the inhibition at 1 µM in the data set with HIV-1 turned out to be 96.3%.

For the compound `CCCc1cc(=O)oc2c3c(c4c(c12)OC(C)C=C4)OCC(C)C3=O` (stereo not drawn) [Example 75, 6,11-dimethyl-4-n-propyl-2H,6H,12H-benzo[1,2-b:3,4-b′:5,6-b″]-tripyranyl-2,12-dione], the melting point fell in the range of 135 to 137 °C. This compound had an IC50 in data set [1] of 1 µg/mL (≈ 2.95 µM). For the same compound, the MIC90 in data set [1] (MABA, H37Rv, read-out: MIC90) was determined as 1.89 µg/mL (≈ 5.56 µM). Further, in data set [1] (setting [2]), the MIC90 is below 10 µg/mL. The inhibition at 1 µM in the data set on HIV-1 was determined as 62.4%.

As to `CCCCC1C=Cc2c3c(c4oc(=O)cc(CCC)c4c2O1)C(=O)C(C)CO3` (stereo not drawn) [Example 77, 4-n-propyl-6-n-butyl-11-methyl-2H,6H,12H-benzo[1,2-b:3,4-b′:5,6-b″]-tripyranyl-2,12-dione], the melting point lay within 144 to 145 °C. Besides, the inhibition at 1 µM with HIV-1 came to 35.2%.

On to `CCCc1cc(=O)oc2c3c(c4c(c12)OCC(C)C4OCC)OC(C)CC3=O` (stereo not drawn) [Example 95, 8-ethyoxyl-7,10-dimethyl-4-n-propyl-7,8,10,11-tetrahydro-6H-benzo[2,3-f;2′,3‘-h’ ]-trip yranyl-2,12-dione], for which the melting point lay within 198 to 201 °C. In addition, in data set [1] (MABA, H37Rv, read-out: IC50), the IC50 is 20.1 µg/mL (≈ 52 µM). For the same compound, the MIC90 in data set [1] (MABA, H37Rv, read-out: MIC90) is 34.5 µg/mL (≈ 89.2 µM).

`CCCc1cc(=O)oc2c3c(c4c(c12)OC(c1ccccc1[N+](=O)[O-])CC4OCC)OC(C)CC3=O` (stereo not drawn) [Example 98, 8-ethoxyl-4-n-propyl-6-(o-nitrophenyl)-10-methyl-4-n-propyl-7,8,10,11-tetrahydro-6H-benzo[2,3-f;2′,3′-h]-tripyranyl-2,12-dione] registered a melting point of 237 to 240 °C. Moreover, in the data set on HIV-1, the inhibition at 1 µM came out at 61%.

As for `CCCc1cc(=O)oc2c3c(c4c(c12)OC(c1ccccc1N)C=C4)OC(C)CC3=O` (stereo not drawn) [Example 99], the melting point fell in the range of 175 to 177 °C. Moreover, the IC50 in data set [1] (MABA, H37Rv, read-out: IC50) worked out at 7.49 µg/mL (≈ 17.9 µM). Further, the MIC90 in data set [1] (MABA, H37Rv, read-out: MIC90) came out at 15.5 µg/mL (≈ 37.1 µM).
